Results on 25 compounds are retold here after patent US10682367B2, “Antitumor arylnaphthalene ligand glycosides” (OHIO STATE INNOVATION FOUNDATION, priority 2016, dated 2020).

Converted amounts (≈) assume the structure as drawn. Where two headings read alike, the source gives them in different places.

One data set deals with HT-29 cells. The data set can be described thus: Cytotoxicity / antiproliferative activity against HT-29 cells. It counts as cell-based. To be noted: HT-29 cells, antiproliferative activity. The text has this: The cytotoxicity of the compounds in FIG. 1 was screened against HT-29 cells by a previously reported procedure (Ren Y et al. J. Nat. Prod 2011, 74, 1117-1125). A summary of the results is described in Table 1.

Data set [1] relates to OVCAR3 ovarian cancer cell line. Kind of data set: IC50 in ovarian cancer cell line OVCAR3. It counts as cell-based. The procedure: (§1) The compounds shown in FIG. 2 were tested against two different ovarian cancer cell lines (xenograft mouse model OVCAR3 and OVCAR8 ovarian cancer cell lines). […] A summary of the test data is shown in FIGS. 3A, 3B, and 4 and Table 3. A comparison of the IC50 values of the compounds in FIG. 2 in two of the ovarian cancer cell lines (OVCAR3 and OVCAR8) reveal subtle differences in activity.

Data set [2] has as its system OVCAR8 ovarian cancer cell line. Kind of data set: IC50 in ovarian cancer cell line OVCAR8. It counts as cell-based. As for the experimental part:
as §1

Data set [3] in a line: Solubility, plate reader-based absorbance assay. It counts as physicochemical. The text has this: A series of compounds were synthesized to improve their water solubility. In particular, phyllanthusmin derivatives including an arabinose derivative with a free C2 hydroxy group, have been explored to produce phosphate, succinate, and amino acid conjugates. In addition PHY-25 and PHY-30 have also been synthesized to contain similar alcohol functionality that can ultimately be utilized to improve water solubility. PHY-28 and PHY-29 containing a glucosamine moiety were also synthesized for improved water solubility. The water solubility of these and other PHY derivatives was assessed (Table 2) to establish a baseline of solubility in a series of 4 solutions. This was accomplished using a plate reader-based absorbance assay.
The solubility, maximum tolerated dose, and pharmacokinetics of the phyllanthusmins, facilitating the in vivo studies with PHY-34, were also determined. The solubility of the compounds were assessed in DMSO, PEG300, HPβCD, and PBS. The stability of PHY-34 was assessed in a formulation comprising PEG300 and saline at a 1:1 volume ratio. The solution was prepared at a concentration of 7 mg/ml. A plate reader-based absorbance assay or LC-MS/MS was used. Table 4 summarizes the solubility measurements. FIG. 5 and Table 5 summarize the stability measurements. FIGS. 6A and 6B show the concentration-time profile of PHY-34 in mouse plasma via different administration routes

The nature of data set [4]: Structure-activity remarks on potency of PHY analogues (test not named). The settings on record: relative to PHY-34 type acetal.

In the data set on HT-29 cells, `COc1cc2c(O[C@@H]3O[C@H](CO)[C@@H](O)[C@H](O)[C@H]3NC(C)=O)c3c(c(-c4ccc5c(c4)OCO5)c2cc1OC)C(=O)OC3` [PHY-29] yielded an IC50 of 19000 nM. That is a double-digit micromolar value.

On to `COc1cc([C@@H]2c3cc4c(cc3[C@@H](O[C@@H]3O[C@@H]5CO[C@@H](C)O[C@H]5[C@H](O)[C@H]3O)[C@H]3COC(=O)[C@H]23)OCO4)cc(OC)c1O` [ETOPO, etoposide, reference compound], for which the results for the IC50 in data set [1] (OVCAR3) and in data set [2] (OVCAR8) were 2380 nM and 8130 nM, respectively.

For the compound `C=CCOc1c2c(c(-c3ccc4c(c3)OCO4)c3cc(OC)c(OC)cc13)C(=O)OC2` [PHY-18], it took 570 nM to reach half-maximal inhibition in the data set with HT-29 cells (IC50).

In the data set with HT-29 cells, `COc1cc2c(O[C@@H]3O[C@H](COC(C)=O)[C@@H](OC(C)=O)[C@H](OC(C)=O)[C@H]3NC(C)=O)c3c(c(-c4ccc5c(c4)OCO5)c2cc1OC)C(=O)OC3` [PHY-28] displayed an IC50 of 1550 nM.

The compound phyllanthusmins C [PHY-20] had an IC50 with HT-29 cells of 1210 nM. In addition, in data set [3], the “Solubility in 10% Cremaphor EL/PBS” value was determined as 10 mg/mL, the “Solubility in DMSO” value stood at 86 mg/mL, the “Solubility in PBS” value was found to be 0.16 mg/mL and the “Solubility in PEG300” value is 24 mg/mL.

Take `COc1cc2c(OC3OC(CO)C(OC)C(OC)C3OC)c3c(c(-c4ccc5c(c4)OCO5)c2cc1OC)C(=O)OC3` (stereo not drawn) [PHY-25]: the results for the IC50 (in the data set with HT-29 cells; in data set [1] (OVCAR3); in data set [2] (OVCAR8)) were 1.7 nM, 1500 nM and 10.4 nM, respectively.

Turning to `COc1cc2c(OC)c3c(c(-c4ccc5c(c4)OCO5)c2cc1OC)C(=O)OC3` [PHY-26], the values for the IC50 in data set [1] (OVCAR3) and in data set [2] (OVCAR8) were 12000 nM and 151 nM, respectively.

With “acutissimalignan A [ACUTA, reference compound]”, the figures for the IC50 in data set [1] (OVCAR3) and in data set [2] (OVCAR8) were 3130 nM and 35.8 nM, respectively.

As to phyllanthusmins C [PHY-4], in data set [3], the “Solubility in 10% Cremaphor EL/PBS” value was determined as 9.4 mg/mL, the “Solubility in DMSO” value worked out at 63 mg/mL, the “Solubility in PBS” value came to 0.17 mg/mL and the “Solubility in PEG300” value is 32 mg/mL.

For the compound `COc1cc2c(OC3OC(CO)C4OC5(CCCC5)OC4C3O)c3c(c(-c4ccc5c(c4)OCO5)c2cc1OC)C(=O)OC3` (stereo not drawn) [PHY-43], the IC50 in data set [1] (OVCAR3) was determined as 119 nM; in data set [2] (OVCAR8), 2.44 nM. The “effect of acetal variation on potency (in words)” value (“effect of acetal variation” below) in data set [4] is listed as “well tolerated”.

As for phyllanthusmins C [PHY-15], in data set [3], the “Solubility in 10% Cremaphor EL/PBS” value was found to be 10 mg/mL, the “Solubility in DMSO” value is 75 mg/mL, the “Solubility in PBS” value is 0.20 mg/mL and the “Solubility in PEG300” value worked out at 14 mg/mL.

For the compound phyllanthusmins B [PHY-3], in data set [3], the “Solubility in 10% Cremaphor EL/PBS” value was determined as 8.9 mg/mL, the “Solubility in DMSO” value came out at 16 mg/mL, the “Solubility in PBS” value stood at 0.18 mg/mL and the “Solubility in PEG300” value stood at 30 mg/mL.

Turning to `CC(=O)O[C@H]1C(=O)[C@@]2(C)[C@H]([C@H](OC(=O)c3ccccc3)[C@]3(O)C[C@H](OC(=O)[C@H](O)[C@@H](NC(=O)c4ccccc4)c4ccccc4)C(C)=C1C3(C)C)[C@]1(OC(C)=O)CO[C@@H]1C[C@@H]2O` [TAXOL, Taxol, reference compound], the IC50 in data set [1] (Homo sapiens, OVCAR-3) stood at 5.91 nM; in data set [2] (Homo sapiens, OVCAR-8), 7.76 nM.

In the data set on HT-29 cells, `COc1cc2c(OCC(O)CO)c3c(c(-c4ccc5c(c4)OCO5)c2cc1OC)C(=O)OC3` (stereo not drawn) [PHY-19] registered an IC50 of 1560 nM.

For the compound `COc1cc2c(OC3OC(CO)C4OC5(CCCCC5)OC4C3O)c3c(c(-c4ccc5c(c4)OCO5)c2cc1OC)C(=O)OC3` (stereo not drawn) [PHY-42], the values for the IC50 in data set [1] (OVCAR3) and in data set [2] (OVCAR8) were 377 nM and 1.99 nM, respectively. In addition, in data set [4], the “effect of acetal variation” value is “well tolerated”.

In the case of phyllanthusmins D [PHY-1], in data set [1] (OVCAR3), the half-inhibitory concentration (IC50) is 10900 nM. In addition, inhibition in data set [2] (OVCAR8) was half-maximal at 49.9 nM (IC50). Also, in data set [3] (Table 2), the “Solubility in 10% Cremaphor EL/PBS” value turned out to be 8.4 mg/mL, the “Solubility in DMSO” value came to 97 mg/mL, the “Solubility in PBS” value worked out at 0.12 mg/mL and the “Solubility in PEG300” value turned out to be 33 mg/mL.

Turning to `COc1cc2c(O[C@@H]3OC[C@H](OC(C)=O)[C@H](OC(C)=O)[C@H]3OC(C)=O)c3c(c(-c4ccc5c(c4)OCO5)c2cc1OC)C(=O)OC3` [PHY-7, 7-O-((2,3,4-tri-O-acetyl)-α-L-arabinopyranosyl) diphyllin], in data set [3], the “Solubility in 10% Cremaphor EL/PBS” value is 7.4 mg/mL (≈ 11.6 mM), the “Solubility in DMSO” value stood at 112 mg/mL (≈ 175 mM), the “Solubility in PBS” value stood at 0.14 mg/mL (≈ 0.219 mM) and the “Solubility in PEG300” value was 5.7 mg/mL (≈ 8.93 mM).

Compound `COc1cc2c(OCCOCc3ccccc3)c3c(c(-c4ccc5c(c4)OCO5)c2cc1OC)C(=O)OC3` [PHY-17] gave an IC50 with HT-29 cells of 1420 nM.

On to phyllanthusmins C [PHY-11], for which, in data set [3], the “Solubility in 10% Cremaphor EL/PBS” value is 10 mg/mL, the “Solubility in DMSO” value came out at 83 mg/mL, the “Solubility in PBS” value amounted to 0.18 mg/mL and the “Solubility in PEG300” value was found to be 15 mg/mL.

As for `COc1cc2c(OC3OC4COC(C)OC4C(OC)C3OC)c3c(c(-c4ccc5c(c4)OCO5)c2cc1OC)C(=O)OC3` [PHY-33, 7-O-(4,6-O-ethylidene-2,3-di-O-methyl-β-D-galactopyranosyl)-diphyllin], in data set [4], the “effect of acetal variation” value is listed as “loss of potency”.

Take `COc1cc2c(OC3OCC4OC(C)(C)OC4C3O)c3c(c(-c4ccc5c(c4)OCO5)c2cc1OC)C(=O)OC3` (stereo not drawn) [PHY-30]: the figures for the IC50 (with HT-29 cells; in data set [1] (OVCAR3); in data set [2] (OVCAR8)) were 10.8 nM, 11.5 nM and 11.7 nM, respectively.

Compound `COc1cc2c(OC3OC(CO)C4OC(C)(C)OC4C3OC)c3c(c(-c4ccc5c(c4)OCO5)c2cc1OC)C(=O)OC3` (stereo not drawn) [PHY-37] had an IC50 in data set [1] (OVCAR3) of 3.59 nM. In data set [2] (OVCAR8), this compound gave an IC50 of 4.87 nM. Further, in data set [3] (Table 4), the “Solubility in 30% HPβCD” value was determined as 0.6 mg/mL (≈ 1.01 mM), the “Solubility in DMSO” value worked out at 104.0 mg/mL (≈ 174 mM), the “Solubility in PBS” value is on record as “— (below the limit of quantitation (0.01 mg/ml))” and the “Solubility in PEG300” value was found to be 28.7 mg/mL (≈ 48.1 mM).

Compound `COCC1OC(Oc2c3c(c(-c4ccc5c(c4)OCO5)c4cc(OC)c(OC)cc24)C(=O)OC3)C(OC)C2OC(C)(C)OC12` (stereo not drawn) [PHY-35] returned an IC50 in data set [1] (OVCAR3) of 4.85 nM. The compound also registered an IC50 in data set [2] (OVCAR8) of 7.04 nM. Further, in data set [3], the “Solubility in DMSO” value turned out to be 86.8 mg/mL (≈ 142 mM) and the “Solubility in PEG300” value was 25.4 mg/mL (≈ 41.6 mM).

As to `COc1cc2c(OC3OC4COC(C)OC4C(O)C3O)c3c(c(-c4ccc5c(c4)OCO5)c2cc1OC)C(=O)OC3` [PHY-32, 7-O-(4,6-O-ethylidene-β-D-galactopyranosyl)-diphyllin], the “effect of acetal variation” value in data set [4] is on record as “loss of potency”.

`COc1cc2c(OC3OCC4OC(C)(C)OC4C3OC)c3c(c(-c4ccc5c(c4)OCO5)c2cc1OC)C(=O)OC3` (stereo not drawn) [PHY-31] gave an IC50 in the data set on HT-29 cells of 5.29 nM.

In general, IC50 refers to the concentration needed to halve the response being measured. A higher IC50 goes with weaker potency.
